Test results: US20240368153A1, “Aminopyridine-based MTA-Cooperative PRMT5 Inhibitors” (Mirati Therapeutics, Inc., priority 2021, published 2024)
Like-named read-outs stand apart in the source and are kept apart here.

Experiments:
PRMT5/MEP50 complex = PRMT5/MEP50 complex (Homo sapiens (Human), UniProt O14744); assay: PRMT5:MEP50 FlashPlate Assay; type: biochemical
Description: The PRMT5 inhibitory activity of compounds of the present invention was determined using a PRMT5:MEP50 FlashPlate Assay (Reaction Biology Corporation).
The assay uses purified human, PRMT5 enzyme to convert S-adenosyl-L-[methyl-^3H]methionine plus histone H4 L-arginine to S-adenosyl-L-homocysteine plus histone H4 [methyl-^3H]-L-arginine. The assay was carried out using Streptavidin-coated FlashPlates (Perkin Elmer), which contained a scintillant embedded in the plastic of the plate. The histone H4 peptide substrate was conjugated with biotin, which binds to the streptavidin-coated well of the plate, placing the H4 peptide in close proximity to the side well and the scintillant. The transfer of the tritiated methyl group from S-adenosyl-L-[methyl-^3H]methionine to the bound histone H4 peptide generated a radiolabeled histone H4, which was quantitated by measuring in a scintillation counter to determine the activity of PRMT5 enzyme in the presence and absence of compound. […] Briefly, compounds of the present invention were solubilized in 100% DMSO at a highest concentration of 10 mM. For IC, determinations, the initial starting concentration for the serial dilutions of each compound was 50 μM. Control samples lacking compound, PRMT5/MEP50 complex or various reaction components also were prepared and processed in parallel with compound test samples. SAH was used as a positive control for assay validation. To measure PRMT5 inhibitory activity, 3 nM PRMT5/MEP50 complex (Reaction Biology Corporation) was preincubated with test compound in assay buffer containing 40 nM histone H4 peptide (amino acids 1-15)-Biotin conjugate for 20 min at room temperature. The enzymatic reaction was initiated by adding 1 μM tritiated S-adenosyl methionine (final concentration) and the reaction is allowed to proceed for 20 min. The reaction was stopped and the amount of bound, tritiated H4 peptide in each sample was determined using a scintillation counter. The IC50 value for each compound was calculated from each 10-point dose-response curve for samples plus and minus MTA using GraphPad Prism software and the results for exemplary compounds of Formula (I) is shown in Table 9a.

[1] = target: PRMT5•SAM (biotinylated PRMT5-MEP50) (Homo sapiens (Human), UniProt O14744); assay: SPR binding assay, SAM running buffer; conditions: 20 μM SAM running buffer
PRMT5•SAM (biotinylated PRMT5-MEP50), sequence (O14744 whole entry, the tested form may be a part): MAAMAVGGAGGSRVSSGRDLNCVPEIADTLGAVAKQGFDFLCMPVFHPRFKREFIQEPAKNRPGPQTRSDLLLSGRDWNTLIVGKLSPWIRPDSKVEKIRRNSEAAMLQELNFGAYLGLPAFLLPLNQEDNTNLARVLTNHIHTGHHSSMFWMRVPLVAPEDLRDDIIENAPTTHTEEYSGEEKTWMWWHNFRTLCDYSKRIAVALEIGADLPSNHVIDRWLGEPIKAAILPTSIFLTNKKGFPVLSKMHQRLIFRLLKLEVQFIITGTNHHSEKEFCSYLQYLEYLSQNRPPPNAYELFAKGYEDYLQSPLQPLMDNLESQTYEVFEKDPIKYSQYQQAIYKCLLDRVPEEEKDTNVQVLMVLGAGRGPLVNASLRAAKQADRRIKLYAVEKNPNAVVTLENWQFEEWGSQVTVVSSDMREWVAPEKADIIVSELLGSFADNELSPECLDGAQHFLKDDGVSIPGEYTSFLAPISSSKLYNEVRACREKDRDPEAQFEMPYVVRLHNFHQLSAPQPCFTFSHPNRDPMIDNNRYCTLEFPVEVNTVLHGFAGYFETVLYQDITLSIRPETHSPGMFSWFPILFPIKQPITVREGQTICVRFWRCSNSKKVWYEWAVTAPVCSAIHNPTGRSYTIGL
PRMT5•SAM (biotinylated PRMT5-MEP50), sequence (Q9BQA1 whole entry partner, the tested form may be a part): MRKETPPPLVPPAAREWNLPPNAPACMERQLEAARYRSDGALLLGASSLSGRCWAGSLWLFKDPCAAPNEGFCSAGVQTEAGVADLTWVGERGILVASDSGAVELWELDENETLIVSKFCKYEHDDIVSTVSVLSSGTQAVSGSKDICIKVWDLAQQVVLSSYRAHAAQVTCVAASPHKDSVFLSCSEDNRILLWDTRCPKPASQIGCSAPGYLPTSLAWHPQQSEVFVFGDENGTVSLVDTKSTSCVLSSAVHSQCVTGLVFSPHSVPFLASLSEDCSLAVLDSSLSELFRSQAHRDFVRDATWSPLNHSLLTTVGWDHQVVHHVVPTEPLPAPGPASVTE
Description: (§1) SPR screening was performed in MTA running buffer (25 mM Bicine pH 7.6, 100 mM NaCl, 1 mM TCEP, 20 μM MTA, 0.05% Tween-20 and 2% DMSO). The biotinylated PRMT5-MEP50 surface was equilibrated with MTA running buffer for 12 hours prior to the start. […] Subsequently, compound titration was repeated in SAM-running buffer (25 mM Bicine pH 7.6, 100 mM NaCl, 1 mM TCEP, 20 μM SAM, 0.05% Tween-20, and 2% DMSO). […] After double referencing, the steady-state response was extracted for each fragment concentration and was fit to the Langmuir isotherm equation to determine the equilibrium dissociation constant (KD).

[2] = target: recombinant human dual expressed Avi PRMT5/His-MEP50 protein (Homo sapiens (Human), UniProt O14744); assay: HTRF binding assay in presence of MTA; conditions: 30 μM MTA
recombinant human dual expressed Avi PRMT5/His-MEP50 protein, sequence (O14744 2-637): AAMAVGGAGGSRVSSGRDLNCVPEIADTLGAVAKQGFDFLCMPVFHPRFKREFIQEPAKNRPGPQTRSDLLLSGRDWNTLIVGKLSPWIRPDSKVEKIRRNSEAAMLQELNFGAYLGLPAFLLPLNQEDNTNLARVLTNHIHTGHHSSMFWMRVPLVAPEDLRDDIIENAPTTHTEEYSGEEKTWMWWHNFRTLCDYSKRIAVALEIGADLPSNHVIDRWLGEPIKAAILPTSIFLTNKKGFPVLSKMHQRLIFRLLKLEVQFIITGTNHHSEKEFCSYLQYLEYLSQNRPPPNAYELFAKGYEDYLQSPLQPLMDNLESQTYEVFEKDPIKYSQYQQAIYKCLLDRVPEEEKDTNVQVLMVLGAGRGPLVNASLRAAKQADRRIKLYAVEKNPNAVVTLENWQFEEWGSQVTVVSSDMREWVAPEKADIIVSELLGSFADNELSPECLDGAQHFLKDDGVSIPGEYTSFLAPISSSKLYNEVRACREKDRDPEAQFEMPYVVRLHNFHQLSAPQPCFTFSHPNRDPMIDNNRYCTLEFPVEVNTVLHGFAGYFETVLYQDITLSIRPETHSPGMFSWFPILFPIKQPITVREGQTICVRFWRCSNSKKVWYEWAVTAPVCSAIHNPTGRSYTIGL
recombinant human dual expressed Avi PRMT5/His-MEP50 protein, sequence (Q9BQA1 2-342 partner): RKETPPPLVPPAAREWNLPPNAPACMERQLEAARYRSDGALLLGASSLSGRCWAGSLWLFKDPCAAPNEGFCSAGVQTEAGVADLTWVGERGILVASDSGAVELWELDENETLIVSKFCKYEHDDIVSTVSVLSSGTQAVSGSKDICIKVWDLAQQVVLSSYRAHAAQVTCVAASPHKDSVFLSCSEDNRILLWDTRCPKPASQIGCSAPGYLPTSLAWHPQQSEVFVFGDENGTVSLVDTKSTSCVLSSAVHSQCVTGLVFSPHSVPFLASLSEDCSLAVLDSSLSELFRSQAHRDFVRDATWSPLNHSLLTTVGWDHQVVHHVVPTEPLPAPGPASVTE
Description: The PRMT5 binding activity of compounds of the present invention was determined using an HTRF binding assay or SPR assay.
A recombinant human dual expressed Avi PRMT5/His-MEP50) protein (corresponding to amino acids for PRMT5 2-637, and 2-342 for MEP50 expressed in baculovirus) was incubated with target fragments in final buffer (25 mM ADA pH 7.2, 30 μM MTA, 1 mM TCEP, 50 mM NaCl, 0.002% Tween, 5 nM proprietary Tracer binding compound prepared in-house), overnight at 2-8° C. After overnight incubation the binding is monitored after the addition of 0.5 nM Anti-His-Tb (Cisbio) after 1 hr incubation at RT (˜20-24 hrs total binding time). The HTRF signal was measured using a Clariostar reader (BMG) excitation filter (Ex Tr), dichroic filter (LP TP) and emission filters (F 665-10 and F 620-10) manufacturer's instructions. The HTRF ratio was calculated using the formula: [emission 665/emission 620]*10000.

[3] = target: PRMT5•MTA (biotinylated PRMT5-MEP50) (Homo sapiens (Human), UniProt O14744); assay: SPR binding assay, MTA running buffer; conditions: 20 μM MTA running buffer
PRMT5•MTA (biotinylated PRMT5-MEP50), sequence (O14744 whole entry): as the sequence (O14744 whole entry, the tested form may be a part) above
PRMT5•MTA (biotinylated PRMT5-MEP50), sequence (Q9BQA1 whole entry partner): as the sequence (Q9BQA1 whole entry partner, the tested form may be a part) above
Description: as §1

[4] = histone H4 peptide, absence of MTA, read-out: IC50
[5] = read-out: IC50 + 2 μM MTA, histone H4 peptide, presence of 2 μM MTA

PRMT5/MEP50 complex, sequence (O14744 whole entry): as the sequence (O14744 whole entry, the tested form may be a part) above
PRMT5/MEP50 complex, sequence (Q9BQA1 whole entry partner): as the sequence (Q9BQA1 whole entry partner, the tested form may be a part) above

`Cc1cc(N)nc2cc(-c3cnsc3)cnc12` [Example 1-8, 7-(isothiazol-4-yl)-4-methyl-1,5-naphthyridin-2-amine] was tested, and the IC50 (PRMT5/MEP50 complex; [4]) was > 300 µM, the IC50 (PRMT5/MEP50 complex; [5]) was > 300 µM and the Kd [1] was 19.1 µM. For the same compound, the IC50 [2] was 11400 nM and the Kd [3] was 7500 nM.

With `Cc1cc(N)nc2cc(Cc3ccccc3F)cnc12` [Example 2-2, 7-(2-fluorobenzyl)-4-methyl-1,5-naphthyridin-2-amine] the Kd [1] was 39.1 µM, the IC50 [2] was 354 nM and the Kd [3] was 5280 nM.

For `Cc1cc(N)nc2cc(Cc3ccccc3Cl)cnc12` [Example 2-3, 7-(2-chlorobenzyl)-4-methyl-1,5-naphthyridin-2-amine], the IC50 (PRMT5/MEP50 complex; [4]) was > 300 µM, the IC50 (PRMT5/MEP50 complex; [5]) was > 300 µM and the Kd [1] was 31.5 µM. The IC50 [2] was 1310 nM and the Kd [3] was 4680 nM.

`Cc1cc(N)nc2cc(Cc3ccccc3C#N)cnc12` [Example 2-4, 2-((6-amino-8-methyl-1,5-naphthyridin-3-yl)methyl)benzonitrile] was tested, and the IC50 (PRMT5/MEP50 complex; [4]) was > 300 µM, the IC50 (PRMT5/MEP50 complex; [5]) was > 300 µM and the Kd [1] was 3.09 µM. For the same compound, the IC50 [2] was 992 nM and the Kd [3] was 874 nM.

With `Cc1cc(N)nc2cc(Cc3cccnc3)cnc12` [Example 2-7, 4-methyl-7-(3-pyridylmethyl)-1,5-naphthyridin-2-amine] the Kd [1] was 1.22 µM, the IC50 [2] was 581 nM and the Kd [3] was 232 nM.

With `Cc1cc(N)nc2cc(Cc3cnn(C)c3)cnc12` [Example 2-9, 4-methyl-7-[(1-methylpyrazol-4-yl)methyl]-1,5-naphthyridin-2-amine] the IC50 (PRMT5/MEP50 complex; [4]) was 243 µM, the IC50 (PRMT5/MEP50 complex; [5]) was 17.1 µM and the Kd [1] was 0.748 µM. It also gave an IC50 [2] of 204 nM and a Kd [3] of 137 nM.

`Cc1cc(N)nc2cc(Oc3cccnc3)cnc12` [Example 3-7, 4-methyl-7-(3-pyridyloxy)-1,5-paphthyridin-2-amine] was tested, and the IC50 (PRMT5/MEP50 complex; [4]) was 351 µM, the IC50 (PRMT5/MEP50 complex; [5]) was 26.1 µM and the IC50 [2] was 546 nM. The Kd [3] was 2460 nM.

For `Cc1cc(N)nc2ccc(-c3ccccc3F)nc12` [Example 4-7, 6-(2-fluorophenyl)-4-methyl-1,5-naphthyridin-2-amine], the IC50 (PRMT5/MEP50 complex; [4]) was > 300 µM, the IC50 (PRMT5/MEP50 complex; [5]) was > 300 µM and the Kd [1] was 81.4 µM. The IC50 [2] was 10100 nM and the Kd [3] was 32000 nM.

In the case of `Cc1cc(N)nc2cc(CNC(=O)c3ccccc3)cnc12` [Example 7-1, N-[(6-amino-8-methyl-1,5-naphthyridin-3-yl)methyl]benzamide], the IC50 (PRMT5/MEP50 complex; [4]) is reported as 62.6 µM, the IC50 (PRMT5/MEP50 complex; [5]) is reported as 5.57 µM and the Kd [1] is reported as 0.396 µM. It also gave an IC50 [2] of 158 nM and a Kd [3] of 94 nM.

For `Cc1cc(N)nc2cc(CNC(=O)c3ccncn3)cnc12` [Example 7-2, N-[(6-amino-8-methyl-1,5-naphthyridin-3-yl)methyl]pyrimidine-4-carboxamide], the IC50 (PRMT5/MEP50 complex; [4]) was > 100 µM, the IC50 (PRMT5/MEP50 complex; [5]) was 22 µM and the Kd [1] was 2.22 µM. For the same compound, the IC50 [2] was 313 nM and the Kd [3] was 151 nM.

`Cc1cc(N)nc2cc(CNC(=O)c3cc(O)ncn3)cnc12` [Example 7-3, N-[(6-amino-8-methyl-1,5-naphthyridin-3-yl)methyl]-6-hydroxy-pyrimidine-4-carboxamide] was tested, and the IC50 (PRMT5/MEP50 complex; [4]) was > 100 µM, the IC50 (PRMT5/MEP50 complex; [5]) was 60 µM and the Kd [1] was 12.5 µM. The IC50 [2] was 1060 nM and the Kd [3] was 682 nM.

`Cc1cc(N)nc2cc(CNC(=O)c3cc(NC4CC4)ncn3)cnc12` [Example 7-4, N-[(6-amino-8-methyl-1,5-naphthyridin-3-yl)methyl]-6-(cyclopropylamino)pyrimidine-4-carboxamide] was tested, and the IC50 (PRMT5/MEP50 complex; [4]) was 18.2 µM, the IC50 (PRMT5/MEP50 complex; [5]) was 1.66 µM and the Kd [1] was 0.081 µM. For the same compound, the IC50 [2] was 29 nM and the Kd [3] was 22 nM.

For `Cc1cc(N)nc2cc(CN3C(=O)c4ccccc4C3=O)cnc12` [Example 7-6, 2-[(6-amino-8-methyl-1,5-naphthyridin-3-yl)methyl]isoindoline-1,3-dione], the IC50 (PRMT5/MEP50 complex; [4]) was > 300 µM, the IC50 (PRMT5/MEP50 complex; [5]) was 0.745 µM and the Kd [1] was 0.105 µM. It also gave an IC50 [2] of 21 nM and a Kd [3] of 12 nM.

`Cc1cc(N)nc2cc(CNC(=O)c3ccccc3)cnc12` [Example 8-1, N-[(6-amino-8-methyl-1,5-naphthyridin-3-yl)methyl]benzamide] gave an IC50 (PRMT5/MEP50 complex; [4]) of 4.29 µM, an IC50 (PRMT5/MEP50 complex; [5]) of 0.419 µM and a Kd [1] of 0.033 µM. It also gave an IC50 [2] of 9 nM and a Kd [3] of 5 nM.

`Nc1nc2cc(CNC(=O)c3ccncn3)[nH]c2cc1Br` [Example 8-2, N-[(5-amino-6-bromo-1H-pyrrolo[3,2-b]pyridin-2-yl)methyl]pyrimidine-4-carboxamide] gave an IC50 (PRMT5/MEP50 complex; [4]) of 5.79 µM, an IC50 (PRMT5/MEP50 complex; [5]) of 0.362 µM and a Kd [1] of 0.137 µM. For the same compound, the IC50 [2] was 13 nM and the Kd [3] was 9 nM.

For `Cc1cc2[nH]ccc2nc1N` [Example 9-1, 6-methyl-1H-pyrrolo[3,2-b]pyridin-5-amine], the IC50 (PRMT5/MEP50 complex; [4]) was 188 µM, the IC50 (PRMT5/MEP50 complex; [5]) was 27.9 µM and the Kd [1] was 3.36 µM. It also gave an IC50 [2] of 2200 nM and a Kd [3] of 456 nM.

With `Nc1nc2cc[nH]c2cc1C1CC1` [Example 9-2, 6-cyclopropyl-1H-pyrrolo[3,2-b]pyridin-5-amine] the IC50 (PRMT5/MEP50 complex; [4]) was 232 µM, the IC50 (PRMT5/MEP50 complex; [5]) was 97.8 µM and the Kd [1] was 19.6 µM. The IC50 [2] was 24700 nM and the Kd [3] was 3260 nM.

Compound `Nc1nc2cc[nH]c2cc1C(F)(F)F` [Example 9-3, 6-(trifluoromethyl)-1H-pyrrolo[3,2-b]pyridin-5-amine] has an IC50 (PRMT5/MEP50 complex; [4]) of 431 µM, an IC50 (PRMT5/MEP50 complex; [5]) of 210 µM and a Kd [1] of 29.2 µM. It also gave an IC50 [2] of 20300 nM and a Kd [3] of 11700 nM.

In the case of `Nc1nc2cc(NC(=O)c3ccccc3)[nH]c2cc1Br` [Example 12-1, N-(5-amino-6-bromo-1H-pyrrolo [3,2-b]pyridin-2-yl)benzamide], the IC50 (PRMT5/MEP50 complex; [4]) is reported as > 100 µM, the IC50 (PRMT5/MEP50 complex; [5]) is reported as > 100 µM and the Kd [1] is reported as 6.29 µM. It also gave an IC50 [2] of 1410 nM and a Kd [3] of 2540 nM.

`Cc1cc2[nH]c(N3CC(=O)NC3=O)cc2nc1N` [Example 13-7, 1-(5-amino-6-methyl-1H-pyrrolo[3,2-b]pyridin-2-yl)imidazolidine-2,4-dione] was tested, and the IC50 (PRMT5/MEP50 complex; IC50 + 2 μM MTA, histone H4 peptide, presence of 2 μM MTA) was > 300 µM, the IC50 (PRMT5/MEP50 complex; [4]) was > 300 µM and the IC50 [2] was 2290 nM.

`Cc1cc2c(cc(CNC(=O)c3ccccc3)n2C2CC2)nc1N` [Example 15-1, N-[(5-amino-1-cyclopropyl-6-methyl-pyrrolo[3,2-b]pyridin-2-yl)methyl]benzamide] was tested, and the IC50 (PRMT5/MEP50 complex; [4]) was > 300 µM, the IC50 (PRMT5/MEP50 complex; [5]) was 44.9 µM and the IC50 [2] was 362 nM. It also gave a Kd [3] of 66 nM.

`CC(=O)N1CCC(=O)n2c(cc3nc(N)c(C)cc32)C1` [Example 15-2, 11-acetyl-5-amino-4-methyl-1,6,11-triazatricyclo[7.5.0.0^2,7]tetradeca-2,4,6,8-tetraen-14-one] was tested, and the IC50 (PRMT5/MEP50 complex; [4]) was > 300 µM, the IC50 (PRMT5/MEP50 complex; [5]) was 57.9 µM and the IC50 [2] was 2470 nM.

In the case of `CC(=O)c1c(CNC(=O)c2ccccc2)[nH]c2cc(C)c(N)nc12` [Example 15-5, N-((3-acetyl-5-amino-6-methyl-1H-pyrrolo[3,2-b]pyridin-2-yl)methyl)benzamide], the Kd [1] is reported as 631 µM, the IC50 [2] is reported as ≥ 100000 nM and the Kd [3] is reported as 774000 nM.

For `Cc1cc2[nH]c(CNC(=O)c3ccccc3)c(C#N)c2nc1N` [Example 15-6, N-((5-amino-3-cyano-6-methyl-1H-pyrrolo[3,2-b]pyridin-2-yl)methyl)benzamide], the IC50 (PRMT5/MEP50 complex; [4]) was > 300 µM, the IC50 (PRMT5/MEP50 complex; [5]) was 76.7 µM and the IC50 [2] was 2640 nM.

Compound `CC(=O)N(C)Cc1cc2nc(N)c(C)cc2n1C(C)=O` [Example 15-8, N-((1-acetyl-5-amino-6-methyl-1H-pyrrolo[3,2-b]pyridin-2-yl)methyl)-N-methylacetamide] has a Kd [1] of 0.341 µM, an IC50 [2] of 1010 nM and a Kd [3] of 43 nM.
